How the values were obtained:
[1] = molecular target: T1, DENV1 FL NS5 (Dengue virus type 1, UniProt P17763); experiment: DENV1 FL NS5 de novo initiation FAPA assay; format: biochemical; conditions: one experiment; read-out: DENV FL NS5 de novo initiation FAPA, IC50, DENV1
T1 construct: 100 nM DENV FL NS5 protein was added; made in house
Description: DENV1-4 FL NS5 dnI assays were performed as described previously. Briefly, compounds from 0–20 or -100 μM concentrations are two-fold serially diluted into 384-well black opaque plates (Corning Costar), after which 100 nM DENV FL NS5 protein was added and the plates incubated at RT for 20 min. RNA and ATTO-CTP, ATP, GTP and UTP were then added and the plates incubated for another 120 min. Reactions were stopped with buffer containing 25 nM CIP, re- incubated at RT for 60 min and read on a Tecan Safire II microplate reader. For order-of-addition experiments, DENV4 FL NS5 was incubated for one hour at RT with RNA, ATP, and GTP or RNA, ATP, GTP and ATTO-CTP, followed by exposure to serially diluted compounds for 20 min at RT. The missing components (ATTO-CTP and UTP or UTP alone) were added and the reactions continued for 120 min after which STOP buffer was added as before. All datapoints were performed in duplicate wells. Each compound was tested at least twice.
2 Co mpound testing with DENV dn I FAPA assays. Final dn I assa y reaction mixtures
3 contained 100 nM DENV 5 ´UTR-L-3´UTR IVT RNA, 20 µ M ATP, 20 µM GTP, 20 µM
4 UTP, 5 µM ATTO -CTP, and 100 nM of DENV FL NS5 protein in 15 µl in assa y buffer
5 comprising 50 mM Tris/ HCl, pH 7.5, 10 mM KCl, 1 mM MgCl2, 0.3 mM MnCl2 (DENV2
6 and 4) or 1 mM MnCl 2 (DENV1 and 3), 0.001% Triton- X-100 and 10 µ M cystein e [ 1] . To
7 perform dose-respons e inhibition measurements, compounds from 0- 20 or - 100 µM
8 concentr ations are two -fold seriall y diluted into 384-well black opaqu e plat es (Corning
9 Costar), after which 100 nM DENV FL NS5 protein was added into resp ect ive wells. The
10 plates wer e sealed, b riefl y shak en and centrif uged at 1500 rpm for 30 sec and incubated at RT
11 for 15 min. Thereafter,RNA and ATTO -CTP, ATP, GTP and UTP were added to the wells to
12 start the reactions. The pl ates wer e re-seal ed, shaken and centrifuged as before, followed b y
13 incubation RT for 120 min. Reactions were stopped by addition of 10 µl of 2.5X STOP
14 buffer (200 mM NaCl, 25 mM MgCl2, 1.5M DEA, pH 10; Promega) with 25 nM calf
15 intestinal phosphatase (CIP), re- incubation at RT for 60 min and read on a Tecan Safire II
16 microplate reader. For o r der-of-addition experiments, DENV4 FL NS5 was incubated for one
17 hour at RT with RNA, ATP, and GTP or RNA, ATP, GTP and ATTO-CTP, followed by
18 exposure to seriall y dilut ed compounds for 20 mi n at RT. The missing components (ATTO-
19 CTP and UTP or UTP alone) were added and the reactions continued for 120 min after which
20 STOP buffer was added as before. All datapoints were performed in duplicate wells. Each
21 compound was tested at l east twice.
23 Compound testing in DENV1-4 infected cells by high content imaging. Approximatel y 7
24 × 10^3 A549 cells per well were s eeded into 384-well plates in Ham’s F-12K medium

[2] = molecular target: DENV4 RdRp domain (aa 268–900) (Dengue virus type 4, UniProt P09866); experiment: Thermo-denaturation assay, recombinant RdRp domain; format: binding; conditions: +50 μM compound; DMSO control 50
Description: (§1) Site-directed alanine mutations of DENV4 FL NS5 cDNA were performed using pET28-D4-MY01-22713 NS5FL [23] as a template, according to the manufacturer’s protocol (Stratagene, USA). Protein expressions of DENV1-4 FL NS5 and their stability analyses by thermo-fluorescence were performed as described previously. DENV de novo initiation and elongation FAPA assays were earlier described. […]
(§2) 6 Fi g .5. Ef fects of N -pocket compounds on DENV pol ymerase thermo-stability. Melting
(§3) 7 temperatur e (Tm) w as ass essed b y thermo-d enatur ation in presence of the S YPRO Oran ge
(§4) 8 dye as described in Materials and Methods. (A-F) Representative meltin g curves of DEN V4
(§5) 10 inhibitors or 5 % DMSO control. […]
(§6) 16 controls treated with DMSO.

[3] = tested on: DENV2-NGC EGFP Replicon in BHK21; experiment: Stable BHK21 DENV2-NGC EGFP replicon assay; format: cell-based; conditions: Dengue virus, DENV2, BHK-21; 48 hr
[4] = tested on: DENV4 FL NS5; experiment: Thermo-denaturation assay, recombinant FL NS5; format: binding; conditions: for Tm change compared to DMSO control, DENV4 FL NS5 WT: 50 µM compound (Fig 7 in S1 Text); for Protein melting temperature, Tm, DENV4 FL NS5 WT: 50 µM compound, DMSO 37.5 (Fig 7 in S1 Text); for Protein melting temperature Tm with compound, FL NS5: +50 μM compound, DMSO control 42.5
Description: as §1, §2, §3, §4, §5, §6

T1 sequence (P17763 2494-3392): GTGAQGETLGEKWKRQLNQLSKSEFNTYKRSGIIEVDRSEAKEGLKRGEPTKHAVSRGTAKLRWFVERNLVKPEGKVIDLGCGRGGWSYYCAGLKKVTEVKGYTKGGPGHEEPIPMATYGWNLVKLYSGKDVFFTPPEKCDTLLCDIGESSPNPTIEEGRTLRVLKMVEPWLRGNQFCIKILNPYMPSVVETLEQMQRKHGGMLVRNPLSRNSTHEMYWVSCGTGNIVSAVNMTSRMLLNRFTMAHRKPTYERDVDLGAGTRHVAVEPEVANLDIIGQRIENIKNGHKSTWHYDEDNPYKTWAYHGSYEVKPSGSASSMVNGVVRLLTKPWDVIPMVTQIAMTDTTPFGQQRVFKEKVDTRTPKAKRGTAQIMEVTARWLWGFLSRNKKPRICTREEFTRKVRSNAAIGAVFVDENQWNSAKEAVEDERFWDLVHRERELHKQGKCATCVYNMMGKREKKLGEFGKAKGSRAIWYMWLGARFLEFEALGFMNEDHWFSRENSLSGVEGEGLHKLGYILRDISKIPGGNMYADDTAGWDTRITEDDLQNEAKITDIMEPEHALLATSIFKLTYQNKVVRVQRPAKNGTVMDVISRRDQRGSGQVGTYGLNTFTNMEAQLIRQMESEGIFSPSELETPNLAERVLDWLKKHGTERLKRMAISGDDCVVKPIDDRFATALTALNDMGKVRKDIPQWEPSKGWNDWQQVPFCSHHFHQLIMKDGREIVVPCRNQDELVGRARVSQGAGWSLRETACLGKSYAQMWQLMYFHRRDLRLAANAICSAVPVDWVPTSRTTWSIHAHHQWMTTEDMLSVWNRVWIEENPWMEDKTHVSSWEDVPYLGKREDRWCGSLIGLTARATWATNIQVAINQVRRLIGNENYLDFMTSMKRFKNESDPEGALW
Sequence of DENV4 RdRp domain (aa 268–900) (P09866 2753-3387): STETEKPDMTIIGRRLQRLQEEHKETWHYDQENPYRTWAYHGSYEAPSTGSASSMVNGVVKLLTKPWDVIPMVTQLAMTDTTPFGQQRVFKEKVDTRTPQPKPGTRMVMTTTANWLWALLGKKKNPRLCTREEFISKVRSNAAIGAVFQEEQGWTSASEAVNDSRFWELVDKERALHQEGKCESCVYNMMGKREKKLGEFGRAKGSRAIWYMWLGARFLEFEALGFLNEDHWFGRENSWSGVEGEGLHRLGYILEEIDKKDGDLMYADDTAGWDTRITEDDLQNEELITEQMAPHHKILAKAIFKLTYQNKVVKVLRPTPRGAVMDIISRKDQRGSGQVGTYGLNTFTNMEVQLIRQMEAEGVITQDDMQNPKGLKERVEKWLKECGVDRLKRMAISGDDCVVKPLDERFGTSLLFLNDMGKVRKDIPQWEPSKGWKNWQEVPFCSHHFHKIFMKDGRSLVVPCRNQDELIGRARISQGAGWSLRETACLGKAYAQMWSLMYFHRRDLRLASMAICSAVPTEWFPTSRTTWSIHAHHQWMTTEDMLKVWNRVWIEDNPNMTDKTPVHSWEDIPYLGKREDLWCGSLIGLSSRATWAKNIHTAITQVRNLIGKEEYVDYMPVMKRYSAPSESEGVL

## COc1cccc(S(=O)(=O)NC(=O)c2cc(-c3ccc(C#CCO)s3)c(OC)cc2C)c1 [Compound 26i]
[1]
  IC50: 24 nM

## COc1cccc(S(=O)(=O)NC(=O)c2cc(-c3ccc(C#CCO)s3)c(OC)cc2OC)c1 [Compound 27]
[2]
  Protein melting temperature Tm with compound, RdRp domain: 58 °C
[3]
  EC50: 3500 nM
[4]
  Tm change compared to DMSO control, DENV4 FL NS5 WT: 1 °C
  Protein melting temperature, Tm, DENV4 FL NS5 WT: 38.5 °C
  Protein melting temperature Tm with compound, FL NS5: 46.5 °C

## COc1cc(OC)c(-c2ccc(C#CCO)s2)cc1C(=O)NS(=O)(=O)c1cccc2cccnc12 [Compound 29]
[2]
  Protein melting temperature Tm with compound, RdRp domain: 64 °C
[3]
  EC50: 5800 nM
[1]
  IC50: 13 nM
[4]
  Tm change compared to DMSO control, DENV4 FL NS5 WT: 3 °C
  Protein melting temperature, Tm, DENV4 FL NS5 WT: 40.5 °C
  Protein melting temperature Tm with compound, FL NS5: 51.5 °C

— article PMC4976923, “Potent Allosteric Dengue Virus NS5 Polymerase Inhibitors: Mechanism of Action and Resistance Profiling” (PLoS Pathogens, 2016)
